Measured values as given in paper PMC8915595, “Revisiting the application of Immobilized Artificial Membrane (IAM) chromatography to estimate in vivo distribution properties of drug discovery compounds based on the model of marketed drugs” (ADMET & DMPK, 2020).

System: not given
Assay: not given
Parameters: method as in earlier work
Details: constant, isocratically determined and predefined values of the calibration set; cited from earlier work

| SMILES | CHI (IAM) |
| --- | --- |
| CC(=O)Nc1ccc(O)cc1 [Paracetamol] | 2.90 |
| CCCCCCCC(=O)c1ccccc1 [Octanophenone] | 49.4 |
| CCCC(=O)c1ccccc1 [Butyrophenone] | 32.0 |
| CCCCC(=O)c1ccccc1 [Valerophenone] | 37.3 |
| CCCCCCC(=O)c1ccccc1 [Heptanophenone] | 45.7 |
| CC(=O)Nc1ccccc1 [Acetanilide] | 11.5 |
| CC(=O)c1ccccc1 [Acetophenone] | 17.2 |
| CCCCCC(=O)c1ccccc1 [Hexanophenone] | 41.8 |
| CCC(=O)c1ccccc1 [Propiophenone] | 25.9 |

System: not listed separately
Assay: IAM chromatography on new IAM.PC.DD2 columns (gradient HPLC, CHI (IAM))
Format: physicochemical
Parameters: key to CHI (IAM) “new” / P20511-014-3 CHI (IAM): CHI (IAM) from retention times calibrated to predefined CHI standards
Details: constant values of the calibration set; CHI IAM converted to octanol/water lipophilicity scale by equation 7
Procedure: The IAM binding was measured using IAM.PC.DD2 HPLC columns (Regis Technologies, Inc., IL, USA) with dimensions of 100 x 4.6 mm, particle size 10 μm with 300 Å pore size.
Two batches of IAM.PC.DD2 columns were studied (R20511-014-3 and P20511-014-3) that had been prepared using the new batches of silica support.
The retention times were standardized using the IAM calibration mixture, containing octanophenone, heptanophenone, hexanophenone, valerophenone, butyrophenone, propiophenone, acetophenone, acetanilide and paracetamol. The retention times of the compounds were plotted against the isocratically determined and predefined CHI (IAM) values listed in Table 1. The slope and intercept of the obtained straight line was used to calculate the CHI IAM values of new compounds.

| SMILES | log K (IAM) |
| --- | --- |
| CC(=O)Nc1ccc(O)cc1 [Paracetamol] | 1.20 |
| CCCCCCCC(=O)c1ccccc1 [Octanophenone] | 4.97 |
| CCCC(=O)c1ccccc1 [Butyrophenone] | 2.62 |
| CCCCC(=O)c1ccccc1 [Valerophenone] | 3.16 |
| CCCCCCC(=O)c1ccccc1 [Heptanophenone] | 4.30 |
| CC(=O)Nc1ccccc1 [Acetanilide] | 1.45 |
| CC(=O)c1ccccc1 [Acetophenone] | 1.67 |
| CCCCCC(=O)c1ccccc1 [Hexanophenone] | 3.71 |
| CCC(=O)c1ccccc1 [Propiophenone] | 2.15 |

Same assay, conditions: lower CHI (IAM) on new batches; outlier if difference greater than 7.2 CHI IAM units

| SMILES | outlier in correlation of reference CHI (IAM) with CHI (IAM) on column R20511-014-3 |
| --- | --- |
| CC(C)NCC(O)COc1cccc2[nH]ccc12 (stereo not drawn) [Pindolol] | outliers |

Same assay, conditions: new IAM.PC.DD2 column batch P20511-014-3, pH 7.4

| SMILES | P20511-014-3 CHI (IAM) |
| --- | --- |
| COC(=O)C1=C(C)NC(C)=C(C(=O)OCCN(C)Cc2ccccc2)C1c1cccc([N+](=O)[O-])c1 (stereo not drawn) [Nicardipine] | 43.73 |
| CC(=O)CCCCn1c(=O)c2c(ncn2C)n(C)c1=O [Pentoxifylline] | 13.87 |
| C#C[C@]1(O)CC[C@H]2[C@@H]3CCc4cc(O)ccc4[C@H]3CC[C@@]21C [Ethinyl estradiol] | 45.23 |
| Cc1ccc(C)c(OCCCC(C)(C)C(=O)O)c1 [Gemfibrozil] | 34.53 |
| COC(=O)C1=C(C)NC(C)=C(C(=O)OC(C)C)C1c1cccc2nonc12 (stereo not drawn) [Isradipine] | 39.16 |
| CC(C)NCC(O)COc1cccc2[nH]ccc12 (stereo not drawn) [Pindolol] | 25.31 |
| CC(=O)Nc1ccccc1 [Acetanilide] | 11.50 |
| CCOC(=O)C1=C(C)NC(C)=C(C(=O)OC)C1c1cccc([N+](=O)[O-])c1 (stereo not drawn) [Nitrendipine] | 39.19 |
| CC1=NS(=O)(=O)c2cc(Cl)ccc2N1 [Diazoxide] | 23.44 |
| CC(C)(C)NCC(O)COc1cccc2c1CC(O)C(O)C2 (stereo not drawn) [Nadolol] | 19.23 |
| COc1cnc(NS(=O)(=O)c2ccc(N)cc2)nc1 [Sulfameter] | 7.09 |
| CCCN(CCC)S(=O)(=O)c1ccc(C(=O)O)cc1 [Probenecid] | 24.38 |
| CCC1(c2ccccc2)C(=O)NCNC1=O [Primidone] | 10.49 |

Same assay, conditions: new IAM.PC.DD2 column batch R20511-014-3, pH 7.4

| SMILES | R20511-014-3 CHI (IAM) |
| --- | --- |
| COC(=O)C1=C(C)NC(C)=C(C(=O)OCCN(C)Cc2ccccc2)C1c1cccc([N+](=O)[O-])c1 (stereo not drawn) [Nicardipine] | 43.82 |
| CC(=O)CCCCn1c(=O)c2c(ncn2C)n(C)c1=O [Pentoxifylline] | 14.04 |
| C#C[C@]1(O)CC[C@H]2[C@@H]3CCc4cc(O)ccc4[C@H]3CC[C@@]21C [Ethinyl estradiol] | 45.30 |
| Cc1ccc(C)c(OCCCC(C)(C)C(=O)O)c1 [Gemfibrozil] | 33.70 |
| COC(=O)C1=C(C)NC(C)=C(C(=O)OC(C)C)C1c1cccc2nonc12 (stereo not drawn) [Isradipine] | 39.11 |
| CC(C)NCC(O)COc1cccc2[nH]ccc12 (stereo not drawn) [Pindolol] | 25.69 |
| CC(=O)Nc1ccccc1 [Acetanilide] | 11.55 |
| CCOC(=O)C1=C(C)NC(C)=C(C(=O)OC)C1c1cccc([N+](=O)[O-])c1 (stereo not drawn) [Nitrendipine] | 39.06 |
| CC1=NS(=O)(=O)c2cc(Cl)ccc2N1 [Diazoxide] | 23.39 |
| CC(C)(C)NCC(O)COc1cccc2c1CC(O)C(O)C2 (stereo not drawn) [Nadolol] | 19.89 |
| COc1cnc(NS(=O)(=O)c2ccc(N)cc2)nc1 [Sulfameter] | 6.92 |
| CCCN(CCC)S(=O)(=O)c1ccc(C(=O)O)cc1 [Probenecid] | 23.45 |
| CCC1(c2ccccc2)C(=O)NCNC1=O [Primidone] | 10.31 |

Same assay, conditions: system suitability test compounds

| SMILES | CHI (IAM) deviation between reference and new IAM.PC.DD2 columns |
| --- | --- |
| COC(=O)C1=C(C)NC(C)=C(C(=O)OCCN(C)Cc2ccccc2)C1c1cccc([N+](=O)[O-])c1 (stereo not drawn) [Nicardipine] | very similar |

Same assay, conditions: system suitability test compounds, new IAM.PC.DD2 columns, pH 7.4

| SMILES | CHI (IAM) “new” |
| --- | --- |
| COC(=O)C1=C(C)NC(C)=C(C(=O)OCCN(C)Cc2ccccc2)C1c1cccc([N+](=O)[O-])c1 (stereo not drawn) [Nicardipine] | 45.0 |

Molecular target: T1, human serum albumin (HSA) (Homo sapiens, UniProt P02768)
T1 sequence (P02768 25-609): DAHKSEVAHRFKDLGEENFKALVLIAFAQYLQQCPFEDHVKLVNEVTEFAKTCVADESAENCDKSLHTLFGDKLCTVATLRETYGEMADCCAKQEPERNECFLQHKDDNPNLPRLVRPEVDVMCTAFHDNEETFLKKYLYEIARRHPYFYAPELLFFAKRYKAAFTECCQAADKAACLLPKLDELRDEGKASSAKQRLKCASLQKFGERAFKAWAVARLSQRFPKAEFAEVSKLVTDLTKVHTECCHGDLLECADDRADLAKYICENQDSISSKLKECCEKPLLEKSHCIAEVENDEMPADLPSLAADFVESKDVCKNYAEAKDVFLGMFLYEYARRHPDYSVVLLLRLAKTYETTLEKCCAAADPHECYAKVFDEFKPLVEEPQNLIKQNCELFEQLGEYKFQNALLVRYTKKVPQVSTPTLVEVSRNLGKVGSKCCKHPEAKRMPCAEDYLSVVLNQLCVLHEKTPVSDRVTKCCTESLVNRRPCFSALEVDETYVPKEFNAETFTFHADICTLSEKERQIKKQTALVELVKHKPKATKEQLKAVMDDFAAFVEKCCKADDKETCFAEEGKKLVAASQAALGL
Assay: not given
Details: cited from earlier work

| SMILES | log K HSA from ref [13] |
| --- | --- |
| COC(=O)C1=C(C)NC(C)=C(C(=O)OCCN(C)Cc2ccccc2)C1c1cccc([N+](=O)[O-])c1 (stereo not drawn) [Nicardipine] | 1.41 |
| CC(=O)CCCCn1c(=O)c2c(ncn2C)n(C)c1=O [Pentoxifylline] | 3.27 |
| C#C[C@]1(O)CC[C@H]2[C@@H]3CCc4cc(O)ccc4[C@H]3CC[C@@]21C [Ethinyl estradiol] | 0.46 |
| Cc1ccc(C)c(OCCCC(C)(C)C(=O)O)c1 [Gemfibrozil] | 3.32 |
| COC(=O)C1=C(C)NC(C)=C(C(=O)OC(C)C)C1c1cccc2nonc12 (stereo not drawn) [Isradipine] | 2.9 |
| CC(C)NCC(O)COc1cccc2[nH]ccc12 (stereo not drawn) [Pindolol] | 1.81 |
| CC(=O)Nc1ccccc1 [Acetanilide] | 0.62 |
| CCOC(=O)C1=C(C)NC(C)=C(C(=O)OC)C1c1cccc([N+](=O)[O-])c1 (stereo not drawn) [Nitrendipine] | 2.35 |
| CC1=NS(=O)(=O)c2cc(Cl)ccc2N1 [Diazoxide] | 5.42 |
| CC(C)(C)NCC(O)COc1cccc2c1CC(O)C(O)C2 (stereo not drawn) [Nadolol] | 2.93 |
| COc1cnc(NS(=O)(=O)c2ccc(N)cc2)nc1 [Sulfameter] | 4.09 |
| CCCN(CCC)S(=O)(=O)c1ccc(C(=O)O)cc1 [Probenecid] | 0.76 |
| CCC1(c2ccccc2)C(=O)NCNC1=O [Primidone] | 3.44 |

System: not given
Assay: not given
Details: reference CHI (IAM), old columns; cited from earlier work

| SMILES | CHI (IAM) from ref [13] |
| --- | --- |
| COC(=O)C1=C(C)NC(C)=C(C(=O)OCCN(C)Cc2ccccc2)C1c1cccc([N+](=O)[O-])c1 (stereo not drawn) [Nicardipine] | 45.90 |
| CC(=O)CCCCn1c(=O)c2c(ncn2C)n(C)c1=O [Pentoxifylline] | 12.00 |
| C#C[C@]1(O)CC[C@H]2[C@@H]3CCc4cc(O)ccc4[C@H]3CC[C@@]21C [Ethinyl estradiol] | 46.80 |
| Cc1ccc(C)c(OCCCC(C)(C)C(=O)O)c1 [Gemfibrozil] | 32.90 |
| COC(=O)C1=C(C)NC(C)=C(C(=O)OC(C)C)C1c1cccc2nonc12 (stereo not drawn) [Isradipine] | 40.00 |
| CC(C)NCC(O)COc1cccc2[nH]ccc12 (stereo not drawn) [Pindolol] | 42.00 |
| CC(=O)Nc1ccccc1 [Acetanilide] | 10.70 |
| CCOC(=O)C1=C(C)NC(C)=C(C(=O)OC)C1c1cccc([N+](=O)[O-])c1 (stereo not drawn) [Nitrendipine] | 40.50 |
| CC1=NS(=O)(=O)c2cc(Cl)ccc2N1 [Diazoxide] | 24.70 |
| CC(C)(C)NCC(O)COc1cccc2c1CC(O)C(O)C2 (stereo not drawn) [Nadolol] | 20.20 |
| COc1cnc(NS(=O)(=O)c2ccc(N)cc2)nc1 [Sulfameter] | 3.70 |
| CCCN(CCC)S(=O)(=O)c1ccc(C(=O)O)cc1 [Probenecid] | 20.10 |
| CCC1(c2ccccc2)C(=O)NCNC1=O [Primidone] | 8.90 |

Molecular target: T1, human serum albumin (HSA)
Assay: Protein binding on chemically bonded HSA column (Chiralpak-HSA)
Details: remeasured in this study, pH 7.4
Procedure: Mobile phase A was 50 mM ammonium acetate adjusted to pH 7.4 and mobile phase B was 2-propanol. The flow rate was 1.5 mL/min and the run time was 6 min. The 2-propanol gradient was applied from 0 to 35% from 0 to 3.00 min and kept at 35% until 4.00 min.

| SMILES | log K HSA |
| --- | --- |
| COC(=O)C1=C(C)NC(C)=C(C(=O)OCCN(C)Cc2ccccc2)C1c1cccc([N+](=O)[O-])c1 (stereo not drawn) [Nicardipine] | 1.95 |
| CC(=O)CCCCn1c(=O)c2c(ncn2C)n(C)c1=O [Pentoxifylline] | 4.03 |
| C#C[C@]1(O)CC[C@H]2[C@@H]3CCc4cc(O)ccc4[C@H]3CC[C@@]21C [Ethinyl estradiol] | 0.50 |
| Cc1ccc(C)c(OCCCC(C)(C)C(=O)O)c1 [Gemfibrozil] | 4.05 |
| COC(=O)C1=C(C)NC(C)=C(C(=O)OC(C)C)C1c1cccc2nonc12 (stereo not drawn) [Isradipine] | 3.30 |
| CC(C)NCC(O)COc1cccc2[nH]ccc12 (stereo not drawn) [Pindolol] | 2.40 |
| CC(=O)Nc1ccccc1 [Acetanilide] | 0.43 |
| CCOC(=O)C1=C(C)NC(C)=C(C(=O)OC)C1c1cccc([N+](=O)[O-])c1 (stereo not drawn) [Nitrendipine] | 2.70 |
| CC1=NS(=O)(=O)c2cc(Cl)ccc2N1 [Diazoxide] | 5.58 |
| CC(C)(C)NCC(O)COc1cccc2c1CC(O)C(O)C2 (stereo not drawn) [Nadolol] | 3.55 |
| COc1cnc(NS(=O)(=O)c2ccc(N)cc2)nc1 [Sulfameter] | 2.44 |
| CCCN(CCC)S(=O)(=O)c1ccc(C(=O)O)cc1 [Probenecid] | 0.49 |
| CCC1(c2ccccc2)C(=O)NCNC1=O [Primidone] | 4.01 |

System: not given
Assay: not given
Details: human

| SMILES | reference log Vdss |
| --- | --- |
| COC(=O)C1=C(C)NC(C)=C(C(=O)OCCN(C)Cc2ccccc2)C1c1cccc([N+](=O)[O-])c1 (stereo not drawn) [Nicardipine] | 0.47 |
| CC(=O)CCCCn1c(=O)c2c(ncn2C)n(C)c1=O [Pentoxifylline] | -0.1 |
| C#C[C@]1(O)CC[C@H]2[C@@H]3CCc4cc(O)ccc4[C@H]3CC[C@@]21C [Ethinyl estradiol] | 0.39 |
| Cc1ccc(C)c(OCCCC(C)(C)C(=O)O)c1 [Gemfibrozil] | -1.34 |
| COC(=O)C1=C(C)NC(C)=C(C(=O)OC(C)C)C1c1cccc2nonc12 (stereo not drawn) [Isradipine] | 0.13 |
| CC(C)NCC(O)COc1cccc2[nH]ccc12 (stereo not drawn) [Pindolol] | 0.85 |
| CC(=O)Nc1ccccc1 [Acetanilide] | -0.13 |
| CCOC(=O)C1=C(C)NC(C)=C(C(=O)OC)C1c1cccc([N+](=O)[O-])c1 (stereo not drawn) [Nitrendipine] | 0.16 |
| CC1=NS(=O)(=O)c2cc(Cl)ccc2N1 [Diazoxide] | -0.16 |
| CC(C)(C)NCC(O)COc1cccc2c1CC(O)C(O)C2 (stereo not drawn) [Nadolol] | -0.33 |
| COc1cnc(NS(=O)(=O)c2ccc(N)cc2)nc1 [Sulfameter] | -0.61 |
| CCCN(CCC)S(=O)(=O)c1ccc(C(=O)O)cc1 [Probenecid] | -0.75 |
| CCC1(c2ccccc2)C(=O)NCNC1=O [Primidone] | -0.15 |
